# In US12629359B2 (UNIVERSITA' DEGLI STUDI DI BRESCIA, priority 2020, dated 2026):
# Entries after “also recorded” stand apart in the source; their conditions may differ.
# What was measured:
# [1] = target: T1, alpha-synuclein/Synapsin III interaction (Homo sapiens, UniProt O14994+P37840); assay: Acceptor photobleaching FRET of alpha-synuclein/Synapsin III interaction in neuronal-differentiated SK-N-SH cells; assay type: cell-based; conditions: 10 μM, 15 min; for stimulation of alpha-synuclein/Synapsin III interaction (FRET efficiency), in words: vs basal
# T1 construct: expressed in transfected cells; host or cells: neuronal-differentiated (retinoic acid) human SK-N-SH neuroblastoma cells, transient transfection with Lipofectamine 3000
# T1 sequence (O14994 whole entry, one chain of several): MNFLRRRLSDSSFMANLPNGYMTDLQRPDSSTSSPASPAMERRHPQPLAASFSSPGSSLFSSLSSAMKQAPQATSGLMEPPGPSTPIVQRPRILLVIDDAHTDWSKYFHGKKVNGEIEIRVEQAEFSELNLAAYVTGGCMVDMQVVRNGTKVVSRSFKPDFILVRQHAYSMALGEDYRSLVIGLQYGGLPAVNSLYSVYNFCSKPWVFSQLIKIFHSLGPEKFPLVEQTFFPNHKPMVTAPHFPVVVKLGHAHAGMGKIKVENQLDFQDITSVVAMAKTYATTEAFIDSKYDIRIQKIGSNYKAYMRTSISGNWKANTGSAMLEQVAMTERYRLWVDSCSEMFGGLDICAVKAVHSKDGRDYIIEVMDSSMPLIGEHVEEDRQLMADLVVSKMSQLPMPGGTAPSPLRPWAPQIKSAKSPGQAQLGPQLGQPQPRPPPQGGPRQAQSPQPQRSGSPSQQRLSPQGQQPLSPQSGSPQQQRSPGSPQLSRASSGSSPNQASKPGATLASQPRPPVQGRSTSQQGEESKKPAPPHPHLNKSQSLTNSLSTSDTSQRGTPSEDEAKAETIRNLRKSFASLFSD
# Experimental: (§1) The ability of the different compound to stimulate alpha-synuclein/Synapsin III interaction was evaluated by acceptor photobleaching FRET or FLIM in neuronal-like cells. In particular, we used neuronal-differentiated SK—N—SH neuroblastoma cells transiently transfected with red fluorescent protein (RFP)-tagged human wild type alpha-synuclein and green fluorescent protein (GFP)-tagged the human 63 kDa Synapsin III isoform.
# Acceptor photobleaching FRET microscopy allows an accurate evaluation of protein-protein interaction through the measurement of FRET efficiency. This parameter is indicative of the increase of donor fluorescence after complete photobleaching of the acceptor fluorescence, within a FRET pair of fluorophores (where the emission wavelength of a donor falls within the excitation wavelength of an acceptor). Since FRET efficiency is detectable only when the two fluorophores are sufficiently close to ensure that their linked proteins are interacting, the molecular proximity of these latter results strictly dependent on this parameter^36,37. […] Human neuroblastoma SK—N—SH cells were grown in complete medium comprising Dulbecco's modified Eagle's medium with 1000 mg glucose/l supplemented with 10% heat-inactivated fetal bovine serum, 100 μg/ml penicillin and 100 μg/ml streptomycin. Cells were maintained at 37° C. under a humidified atmosphere of 5% CO2 and […]. For FRET studies, SK—N—SH cells were seeded onto poli-D-lysine-coated 13 mm glass coverslips in 24-well plates (15000 cells per coverslip) and were maintained in differentiation medium for ten days by daily adding 10 μM retinoic acid to the medium. […] Fixed cells were analyzed by means of a Zeiss confocal laser microscope LSM 880 (Carl Zeiss) with the laser set on A=488-543. After identifying double positive cells three-to-six regions of interest (ROI) were analyzed for 4 series. Two images of basal condition (Pre-bleaching) were acquired before bleaching the RFP acceptor fluorophore with laser 543 set at 65% power. Then, other two images were acquired after the bleaching (Post-bleaching). The FRET efficiency (intended as the GFP recovery after RFP photobleaching) was measured by using Zen black software (Carl Zeiss). The average intensity of the background (outside the cell) was subtracted from the average intensity of the ROI and all the FRET values resulting from the different ROI were used for statistical analysis.
# Human neuroblastoma SK—N—SH cells were grown in complete medium comprising Dulbecco's modified Eagle's medium with 1000 mg glucose/l supplemented with 10% heat-inactivated fetal bovine serum, 100 μg/ml penicillin and 100 μg/ml streptomycin. Cells were maintained at 37° C. under a humidified atmosphere of 5% CO2 and […]. For FRET studies, SK—N—SH cells were seeded onto poli-D-lysine-coated 13 mm glass coverslips in 24-well plates (15000 cells per coverslip) and were maintained in differentiation medium for ten days by daily adding 10 μM retinoic acid to the medium. […] Fixed cells were analyzed by means of a Zeiss confocal laser microscope LSM 880 (Carl Zeiss) with the laser set on λ=488-543. After identifying double positive cells three-to-six regions of interest (ROI) were analyzed for 4 series. Two images of basal condition (Pre-bleaching) were acquired before bleaching the RFP acceptor fluorophore with laser 543 set at 65% power. Then, other two images were acquired after the bleaching (Post-bleaching). The FRET efficiency (intended as the GFP recovery after RFP photobleaching) was measured by using Zen black software (Carl Zeiss). The average intensity of the background (outside the cell) was subtracted from the average intensity of the ROI and all the FRET values resulting from the different ROI were used for statistical analysis.
# [2] = target: T1, alpha-synuclein/Synapsin III interaction; assay: FLIM-FRET (donor lifetime) of alpha-synuclein/Synapsin III interaction in SK-N-SH cells; assay type: cell-based; conditions: 10 μM, 15 min after treatment
# Experimental: as §1
# The comparison of the lifetimes of the donor alone and in presence of the acceptor allows for precise and concentration-independent measurements of FRET efficiency. Fluorescence lifetime is defined as the average time that a fluorophore spends in the excited state after the absorption of light, prior to returning to the ground state by emitting a photon. Donor fluorescence lifetime is decreased when FRET occurs between the fluorophore pair. The comparison of the lifetimes of the donor alone and in presence of the acceptor allows for precise and concentration-independent measurements of FRET efficiency (Ishikawa-Ankerhold, H. C. et al. Molecules (Basel, Switzerland) 2012, 17, 4047-4132). Human neuroblastoma SK—N—SH cells were grown in complete medium comprising Dulbecco's modified Eagle's medium with 1000 mg glucose/l supplemented with 10% heat-inactivated fetal bovine serum, 100 μg/ml penicillin and 100 μg/ml streptomycin. Cells were maintained at 37° C. under a humidified atmosphere of 5% CO2 and […]. For FRET/FLIM studies, SK—N—SH cells were seeded onto poli-D-lysine-coat 1.7 cm2 glass chamber (15000 cells per well) and were maintained in differentiation medium for ten days by daily adding 10 μM retinoic acid to the medium. […] The time-domain FLIM was measured using a Time-Correlated Single Photon Counting (TCSPC) (PicoQuant) operated with SymPhoTime 64 software (PicoQuant). […] The images of GFP fluorescence generated in ZEN software were stored and processed with SymPhoTime 64. The mean fluorescence intensities within cell body were determined using the ROI tool in SymPhoTime 64. […] The fluorescence lifetime analysis was performed in the SymPhoTime 64 software within the cell body, automatically recognized by the software as ROI 0. Individual photon arrivals were detected using a SPAD detector and events were recorded by a PicoHarp 300 TCSPC module. […] The percentage FLIM-FRET efficiency was calculated as: 100×[1−(lifetime of donor with FRET/lifetime of donor without FRET)]. For lifetime analysis, fifteen cells were recorded for each condition, included GFP alone.
smiles,measurement,setting,value
COC(=O)[C@H](c1ccc(C)cc1)C1CCCCN1.Cl (stereo partly drawn) [I-erythro],"stimulation of alpha-synuclein/Synapsin III interaction (FRET efficiency), in words",[1],not able to stimulate alpha-synuclein/Synapsin III interaction; also recorded: No significant increase
same,"stimulation of alpha-synuclein/Synapsin III interaction (FLIM), in words",[2],did not stimulate alpha-synuclein/Synapsin III interaction
"COC(=O)[C@@H](c1ccc(C)cc1)C1CCCCN1.Cl (stereo partly drawn) [I-threo, threo methyl 2-(piperidin-2-yl)-2-(p-tolyl)acetate hydrochloride]",% FRET efficiency change vs control untreated cells,[1]; neuronally differentiated SK-N-SH cells,+8.8%
same,% FRET efficiency change vs MPH-treated cells,[1]; vs MPH 10 μM,+5.5%
same,% FRET efficiency change vs VI-threo-treated cells,[1]; vs VI-threo 10 μM,+5.2%
same,"stimulation of alpha-synuclein/Synapsin III interaction (FRET efficiency), in words",[1],significant increase in the FRET efficiency
same,% decrease of tau amplitude (donor lifetime) vs MPH treated cells,[2],-8.4%
same,% decrease of tau amplitude (donor lifetime) vs untreated cells,[2],-11.95%
same,"stimulation of alpha-synuclein/Synapsin III interaction (FLIM), in words",[2],able to promote alpha-synuclein/synapsin III interaction
